Measured values taken from ChEMBL document CHEMBL5729782, “6-heteroaryloxy benzimidazoles and azabenzimidazoles as JAK2 inhibitors” (2023).
Values joined by “and” are separate entries in the source; they are usually repeats but may differ in a detail not shown here. Identical values can stand only once.

assay: Streptavidin-coated magnetic beads were treated with biotinylated small molecule ligands for 30 minutes at room temperature to generate affinity resins for kinase assays. The liganded beads were blocked with excess biotin and washed with blocking buffer (SeaBlock (Pierce), 1% BSA, 0.05% Tween 20, 1 mmol/L DTT) to remove unbound ligand and to reduce nonspecific phage binding. Binding reactions were assembled by combining kinases, liganded affinity beads, and test compounds in 1× binding buffer (1×PBS, 0.05% Tween 20, 0.1% BSA, 1 mmol/L DTT). Test compound was prepared as 111× stocks in 100% DMSO and directly diluted into the assay wells. All reactions were performed in polypropylene 384-well plates in a final volume of 0.02 mL. The assay plates were incubated at room temperature with shaking for 1 hour and the affinity beads were washed with wash buffer (1×PBS, 0.05% Tween 20). The beads were then re-suspended in elution buffer (1×PBS, 0.05% Tween 20, 0.5 μmol/L non-biotinylated affinity ligand) and incubated at room temperature with shaking for 30 minutes. The kinase concentration in the eluate was measured by qPCR.

SMILES | Kd
CC(=O)Nc1cc(Oc2cnc3nc(Nc4cc(C(C)(C)C)n([C@H]5CCC[C@@H]5O)n4)n(C)c3c2)ccn1 | in the range around 30 nM
CC(=O)Nc1cc(Oc2cnc3nc(Nc4cc(C(C)C)n(CCC#N)n4)n(C)c3c2C)ccn1 | < 10 nM
CC(=O)Nc1cc(Oc2cnc3nc(Nc4cc5n(n4)CCCC5(C)C)n(C)c3c2Cl)ccn1 | < 10 nM
CNC(=O)c1cc(Oc2ccc3nc(Nc4cc(C(C)(C)C)nn4C)n(C)c3c2)ccn1 | in the range around 525 nM
CO[C@H]1CCOC[C@@H]1n1cc(C(F)(F)F)cc(Nc2nc3ccc(Oc4ccnc(NC(C)=O)c4)cc3n2C)c1=O | < 10 nM
CNc1cc(Oc2ccnc(NC(C)=O)c2)cnc1NC(=S)Nc1cc2n(n1)CCCC2(C)C | < 10 nM
CC(=O)Nc1cc(Oc2ccc3nc(Nc4cc(C(F)(F)F)cn(C[C@@H]5COCCO5)c4=O)n(C)c3c2)ccn1 | in the range around 525 nM
CC(=O)Nc1cc(Oc2cnc3nc(NC4=CC(C(F)(F)F)=CC(C)C4=O)n(C)c3c2Cl)ccn1 (configuration not stated) | < 10 nM
COc1c(Oc2ccnc(NC(C)=O)c2)cnc2nc(Nc3cc(C(C)(C)C)n(-c4ccn(CC(F)F)c4)n3)n(C)c12 | < 10 nM
COc1c(Oc2ccnc(NC(=O)C3CC3)c2)cnc2nc(Nc3cc(C(C)(C)C)n(C[C@H](C)O)n3)n(C)c12 | < 10 nM
COc1c(Oc2ccnc(NC(=O)C3CC3)c2)cnc2nc(Cc3cc(C4CC4)cn(C)c3=O)n(C)c12 | < 10 nM
CO[C@H]1CCC1Cn1cc(C2CC2)cc(Nc2nc3ccc(Oc4ccnc(NC(C)=O)c4)cc3n2C)c1=O (some centres not stated) | < 10 nM
CCCCO[C@H]1C[C@@H](n2nc(Nc3nc4ccc(Oc5ccnc(NC(C)=O)c5)cc4n3C)cc2C(C)(C)C)C1 | < 10 nM
COc1c(Oc2ccnc(NC(=O)C3CC3)c2)cnc2nc(Nc3cc(C(C)(C)C)n(C[C@@H](C)O)n3)n(C)c12 | < 10 nM
CC(=O)Nc1cc(Oc2ccc3nc(Nc4cc(C5CC5)cn(C5CCC5O)c4=O)n(C)c3c2)ccn1 (configuration not stated) | < 10 nM (3×) and in the range around 30 nM
COc1ccc(Cn2cc(Cc3ccc(Nc4nc5ccc(Oc6ccnc(NC(C)=O)c6)cc5n4C)cc3C(F)(F)F)cn2)cc1 | in the range around 525 nM
COc1c(Oc2ccnc(NC(C)=O)c2)cnc2nc(Nc3nc([C@@H]4CCOC4)c(C(C)(C)C)s3)n(C)c12 | < 10 nM
CC(C)(C)OC(=O)N1CC2(CC(n3nc(C(F)(F)F)cc3N)C2)C1 | < 10 nM
COCCN1CC[C@@H](n2nc(NC3Nc4ncc(Oc5ccnc(NC(=O)C6CC6)c5)c(Cl)c4N3C)cc2C(C)(C)C)C1 (some centres not stated) | < 10 nM
CNc1cc(Oc2ccnc(NC(C)=O)c2)cnc1NC(=S)Nc1cc(C2CC2)cn(C)c1=O | < 10 nM
CC(=O)Nc1ccc(Oc2cnc3c(c2)nc(Nc2cc(C(C)(C)C)n([C@H]4CCOC4)n2)n3C)cn1 | < 10 nM
CC(=O)Nc1cc(Oc2cnc3nc(Nc4cc(C(C)(C)C)n(C[C@H]5CCN(C)CC5(F)F)n4)n(C)c3c2)ccn1 | in the range around 3000 nM
CC(=O)Nc1cc(Oc2cnc3nc(Nc4cc(C5CC5)cn(C)c4=O)n(C)c3c2Cl)ccn1 | in the range around 30 nM
CC(=O)Nc1cc(Oc2ccc3nc(Nc4cc(C5CC5)cn(CC5CC[C@@H]5O)c4=O)n(C)c3c2)ccn1 (some centres not stated) | < 10 nM
COc1c(Oc2ccnc(NC(C)=O)c2)cnc2nc(Nc3nc([C@H]4CCOC4)c(C(C)(C)C)s3)n(C)c12 | < 10 nM
CC(=O)Nc1cc(Oc2cnc3nc(Nc4cc(C(C)C)n(CCF)n4)n(C)c3c2)ccn1 | < 10 nM
CC(=O)Nc1cc(Oc2cnc3nc(Nc4cc(C(C)C)n(CC(F)F)n4)n(C)c3c2)ccn1 | < 10 nM
